From patent US5260309A, “4,5,6,11-tetrahydrobenzo [6,7] cycloocta [1,2-b]thiophen-6,11-imines and 6,11-dihydrobenzo [6,7] cycloocta [1,2-b] thiophen-6,11-imines” (Pfizer Inc., priority 1992, dated 1993)

Tested on: P2 membranes from rat forebrain (3H-TCP binding)
Assay: 3H-TCP binding assay (displacement of 3H-TCP from P2 membranes from rat forebrain)
Conditions: activity ratio (+)-enantiomer vs (-)-enantiomer
Experimental: P2 membranes from rat forebrain were suspended in 5 mM tris(hydroxymethyl)aminomethane hydrochloride buffer (pH 7.4). A solution of the test compound in H2 O or DMSO/H2 O was added followed by a solution of ^3 H-TCP The mixture was incubated for 20 minutes at 30° C. and then injected onto a glass fiber filter. The filters were washed with cold buffer and placed in vials for subsequent liquid scintillation spectrometry. IC50 were calculated from the amount of tritium label retained on the filters.

| Structure (SMILES) | times as active as the (-)-enantiomer in the 3H-TCP binding assay |
| --- | --- |
| CC12NC(CCc3ccsc31)c1ccccc12 (single isomer, unassigned; (+)) [(+)-enantiomer, (+)-11-methyl-4,5,6,11-tetrahydrobenzo[6,7]cycloocta[1,2-b]-thiophen-6,11-imine] | approximately eight |

Same assay, conditions: rat forebrain P2 membranes, pH 7.4, 20 minutes at 30° C.; upper bound stated for the group in micromolar

| Structure (SMILES) | IC50 |
| --- | --- |
| c1ccc2c(c1)C1CCc3ccsc3C2N1 (stereo not drawn) [Example 4, 4,5,6,11-Tetrahydrobenzo[6,7]cycloocta[1,2-b]thiophen-6,11-imine] | ≤ 2000 nM |
| CC12NC(CCc3cc(Cl)sc31)c1ccccc12 (stereo not drawn) [Example 16, 2-Chloro-11-methyl-4,5,6,11-tetrahydrobenzo[6,7]-cycloocta[1,2-b]thiophen-6,11-imine] | ≤ 2000 nM |
| CC12NC(CCc3cc(Br)sc31)c1ccccc12 (stereo not drawn) [15 (free amine), 2-bromo-11-methyl-4,5,6,11-tetrahydrobenzo[6,7]cycloocta[1,2-b]thiophen-6,11-imine] | ≤ 2000 nM |
| CSc1cc2c(s1)C1(C)NC(CC2)c2ccccc21 (stereo not drawn) [Example 14, 2-Methylthio-11-methyl-4,5,6,11-tetrahydrobenzo[6,7]-cycloocta[1,2-b]thiophen-6,11-imine] | ≤ 2000 nM |
| CC12NC(C=Cc3ccsc31)c1ccccc12 (stereo not drawn) [Example 18, 11-Methyl-6,11-dihydrobenzo[6,7]cycloocta[1,2-b]thiophen-6,11-imine] | ≤ 2000 nM |

Same assay, conditions: rat forebrain P2 membranes, pH 7.4, 20 minutes at 30° C.; upper bound stated for the group in nanomolar

| Structure (SMILES) | IC50 |
| --- | --- |
| Cc1ccc2c(c1)C1CCc3ccsc3C2(C)N1 (stereo not drawn) [Example 26, 8.11-Dimethyl-4,5,6,11-tetrahydrobenzo[6,7]cycloocta-[1,2-b]thiophen-6,11-imine] | ≤ 40 nM |
| CC12NC(CCc3ccsc31)c1cc(F)ccc12 (stereo not drawn) [Example 22, 8-Fluoro-11-methyl-4,5,6,11-tetrahydrobenzo[6,7]-cycloocta[1,2-b]thiophen-6,11-imine] | ≤ 40 nM |
| CC12NC(CCc3ccsc31)c1ccccc12 (stereo not drawn) [Example 9, 11-Methyl-4,5,6,11-tetrahydrobenzo[6,7]cycloocta-[1,2-b]thiophen-6,11-imine] | ≤ 40 nM |
